Results reported in patent US9752168B2, “Compositions comprising a polypeptide having cellulolytic enhancing activity and a quinone compound and uses thereof” (priority 2010, dated 2017).
Read-outs that look alike come from different tables or passages of the source.

Tests used:
[1] = test system: Trichoderma reesei cellulase composition; experiment: Hydrolysis of AVICEL® (microcrystalline cellulose) by the T. reesei cellulase composition; details: for quinone compound effect(no GH61) (ratio, Equation 2): AVICEL®; for Percent conversion of AVICEL®: no quinone compound, cellulase 4 mg protein/g cellulose, GH61 polypeptide where present 0.4 mg/g cellulose (10% w/w of cellulase)
[2] = test system: Trichoderma reesei cellulase composition; details: milled washed PCS
[3] = test system: Trichoderma reesei cellulase composition; details: milled unwashed PCS; 5 mM quinone; 1, 3, and 7 days (white bars)
[4] = test system: Talaromyces stipitatus GH61 polypeptide; format: biochemical; details: T. stipitatus GH61 0.4 or 2 mg per g cellulose
[5] = target: Aspergillus fumigatus GH61B polypeptide (Aspergillus fumigatus, UniProt Q4WP32); format: biochemical; details: A. fumigatus GH61B 0.4 or 2 mg per ml
[6] = test system: Penicillium pinophilum GH61A polypeptide; format: biochemical; details: P. pinophilum GH61A 0.4 or 2 mg per ml
[7] = test system: Thielavia terrestris GH61E polypeptide; format: biochemical; details: AVICEL®, T. terrestris GH61E 0.4 or 2 mg per ml
[8] = target: A. oryzae CEL3A beta-glucosidase (Aspergillus oryzae, UniProt Q2UUD6); format: biochemical; details: 96 hours at 50° C.
[9] = test system: A. oryzae CEL3A beta-glucosidase; format: biochemical; details: 96 hours at 50° C.
[10] = 5 mM quinone, 1, 3, and 7 days (white bars)
[11] = AVICEL®, 5 mM quinone present, days 3 and 7
[12] = AVICEL®, 5 mM quinone, day 1 and 3
[13] = quinone added to A. oryzae CEL3A beta-glucosidase (10 mg/g cellulose), no GH61A
[14] = quinone with T. aurantiacus GH61A polypeptide (10 mg/g cellulose) and A. oryzae CEL3A beta-glucosidase (10 mg/g cellulose)
[15] = component added alone, beta-glucosidase or GH61A 10 mg protein per g cellulose, adrenochrome […] w/w, 4-tert-butyl-5-methoxy-1,2-benzoquinone 0.15% w/w
[16] = quinone with T. aurantiacus GH61A polypeptide (10 mg/g cellulose), no beta-glucosidase

Chain of Aspergillus fumigatus GH61B polypeptide (Q4WP32 22-250): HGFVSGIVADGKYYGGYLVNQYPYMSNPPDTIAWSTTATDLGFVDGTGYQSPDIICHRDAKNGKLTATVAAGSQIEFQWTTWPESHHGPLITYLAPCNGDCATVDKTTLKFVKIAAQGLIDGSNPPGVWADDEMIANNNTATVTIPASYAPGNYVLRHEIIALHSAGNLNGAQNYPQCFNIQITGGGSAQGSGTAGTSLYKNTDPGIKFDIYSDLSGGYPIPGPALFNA

## O=C1c2ccccc2C(=O)c2c(O)ccc(O)c21
[1]; 1 mM quinone, 3 days of hydrolysis
  quinone compound effect(no GH61) (ratio, Equation 2): 0.932±0.0123
[1]; 1 mM quinone, 7 days of hydrolysis
  quinone compound effect(no GH61) (ratio, Equation 2): 1.01±0.0120

## O=C1C=C(O)C(=O)c2ccccc21
[1]; 1 mM quinone, FIG. 1E white bars
  quinone compound effect(no GH61) (ratio, Equation 2): less than 1

## COC1=C(OC)C(=O)C(C)=CC1=O
[2]; 10 mM quinone, 1 and 3 days, cellulase 2 mg per g cellulose
  quinone compound effect(no GH61) (ratio, Equation 2): less than 1
[1]; 5 mM quinone, day 3 and 7
  quinone compound effect(no GH61) (ratio, Equation 2): less than 1
[1]; 10 mM quinone, 1 and 3 days
  quinone compound effect(no GH61) (ratio, Equation 2): less than 1
[3]
  quinone compound effect(no GH61) (ratio, Equation 2): greater than 1

## O=C1C=CC(=O)C=C1 [1,4-benzoquinone]
[1]; [10]
  quinone compound effect(no GH61) (ratio, Equation 2): less than 1

## O=C1C=CC(=O)c2ccccc21 [1,4-naphthoquinone]
[2]; [10]
  quinone compound effect(no GH61) (ratio, Equation 2): less than 1
[1]; [10]
  quinone compound effect(no GH61) (ratio, Equation 2): less than 1

## CC1=CC(=O)C=CC1=O [2-methyl-1,4-benzoquinone]
[4]; 5 mM quinone, day 7
  Day 7 hydrolysis of AVICEL® in the presence of quinone and GH61 polypeptide: not significantly impacted
[4]; [11]
  GH61 effect (ratio, Equation 4): greater than 1
[4]; [12]
  quinone compound effect(+GH61) (ratio, Equation 3): less than 1
[5]; 5 mM quinone, day 7
  Day 7 hydrolysis of AVICEL® in the presence of quinone and GH61 polypeptide: not significantly impacted
[5]; [11]
  GH61 effect (ratio, Equation 4): greater than 1
[5]; [12]
  quinone compound effect(+GH61) (ratio, Equation 3): less than 1
[6]; 5 mM quinone, day 7
  Day 7 hydrolysis of AVICEL® in the presence of quinone and GH61 polypeptide: not significantly impacted
[6]; [11]
  GH61 effect (ratio, Equation 4): greater than 1
[6]; [12]
  quinone compound effect(+GH61) (ratio, Equation 3): less than 1
[7]; 5 mM quinone present, days 3 and 7
  GH61 effect (ratio, Equation 4): greater than 1
[7]; 5 mM quinone, day 7
  quinone compound effect(+GH61) (ratio, Equation 3): less than 1
[1]; [10]
  quinone compound effect(no GH61) (ratio, Equation 2): less than 1

## COC1=CC(=O)C(=O)C=C1C(C)(C)C [4-tert-butyl-5-methoxy-1,2-benzoquinone]
[8]; [13]
  conversion of PASC: 1.6±0.1%
[8]; [14]
  conversion of PASC: 29.9±3.2%
[9]; [15]
  conversion of PASC: no significant conversion
[9]; [16]
  conversion of PASC: 0.8±0.6%

## CN1CC(O)C2=CC(=O)C(=O)C=C21 (stereo not shown) [adrenochrome, 3-hydroxy-1-methyl-5,6-indolinedione]
[8]; [13]
  conversion of PASC: 0.3±0.3%
[8]; [14]
  conversion of PASC: 8.5±2.0%
[9]; [15]
  conversion of PASC: no significant conversion
[9]; [16]
  conversion of PASC: 0.1±0.1%

B1: T. terrestris GH61E polypeptide: GH61E polypeptide having cellulolytic enhancing activity (SEQ ID NO: 8), recombinantly prepared according to WO 2005/074647 A2 (protein, listed as Thielavia terrestris)
chain: MLANGAIVFLAAALGVSGHYTWPRVNDGADWQQVRKADNWQDNGYVGDVTSPQIRCFQATPSPAPSVLNTTAGSTVTYWANPDVYHPGPVQFYMARVPDGEDINSWNGDGAVWFKVYEDHPTFGAQLTWPSTGKSSFAVPIPPCIKSGYYLLRAEQIGLHVAQSVGGAQFYISCAQLSVTGGGSTEPPNKVAFPGAYSATDPGILINIYYPVPTSYQNPGPAVFSC
[1]; 1 day
  Percent conversion of AVICEL®: 14.7±0.3%
[1]; 3 days
  Percent conversion of AVICEL®: 29.2±0.4%
[1]; 7 days
  Percent conversion of AVICEL®: 49.3±0.5%

B2: T. stipitatus GH61 polypeptide: GH61 polypeptide having cellulolytic enhancing activity (SEQ ID NO: 164), recombinantly prepared as described in Example 3 (protein, listed as Talaromyces stipitatus)
chain: MPSTKVAALSAVLALASTVAGHGFVQNIVIDGKSYTGYLVNQYPYQSNPPAVIGWSTTATDLGFVDGSGYTNPDIICHKNAKPGQLSAPVAAGGKVELEWTTWPESHHGPVISYLANCNGDCTTVDKTKLEFVKIDQRGLIDDSNPPGTWAADQLIAANNSWTVTIPESIAPGNYVLRHEIIALHSANNATGAQNYPQCINLQITGSGTANPSGTPGEKLYTPTDPGILVNIYQSLSSYVIPGPTLWSGAAAHVVATAAGSATGVASATATPTTLVTAVSSPTGAPSVVTPEAPSVTSFAPVVTVTDVVTVTTVITTTIS
[1]; 1 day
  Percent conversion of AVICEL®: 13.6±0.4%
[1]; 3 days
  Percent conversion of AVICEL®: 27.9±0.2%
[1]; 7 days
  Percent conversion of AVICEL®: 44.7±0.5%

B3: T. reesei GH61B polypeptide: GH61B polypeptide having cellulolytic enhancing activity (SEQ ID NO: 16), recombinantly prepared according to WO 2007/089290 A2 (protein, listed as Trichoderma reesei)
chain: MKSCAILAALGCLAGSVLGHGQVQNFTINGQYNQGFILDYYYQKQNTGHFPNVAGWYAEDLDLGFISPDQYTTPDIVCHKNAAPGAISATAAAGSNIVFQWGPGVWPHPYGPIVTYVVECSGSCTTVNKNNLRWVKIQEAGINYNTQVWAQQDLINQGNKWTVKIPSSLRPGNYVFRHELLAAHGASSANGMQNYPQCVNIAVTGSGTKALPAGTPATQLYKPTDPGILFNPYTTITSYTIPGPALWQG
[1]; 1 day
  Percent conversion of AVICEL®: 13.6±0.4%
[1]; 3 days
  Percent conversion of AVICEL®: 29±2%
[1]; 7 days
  Percent conversion of AVICEL®: 44±2%

B4: A. oryzae CEL3A beta-glucosidase: beta-glucosidase (SEQ ID NO: 112) recombinantly prepared as described in WO 2004/099228 (protein, listed as Aspergillus oryzae)
chain: MKLGWIEVAALAAASVVSAKDDLAYSPPFYPSPWADGQGEWAEVYKRAVDIVSQMTLTEKVNLTTGTGWQLERCVGQTGSVPRLNIPSLCLQDSPLGIRFSDYNSAFPAGVNVAATWDKTLAYLRGQAMGEEFSDKGIDVQLGPAAGPLGAHPDGGRNWEGFSPDPALTGVLFAETIKGIQDAGVIATAKHYIMNEQEHFRQQPEAAGYGFNVSDSLSSNVDDKTMHELYLWPFADAVRAGVGAVMCSYNQINNSYGCENSETLNKLLKAELGFQGFVMSDWTAHHSGVGAALAGLDMSMPGDVTFDSGTSFWGANLTVGVLNGTIPQWRVDDMAVRIMAAYYKVGRDTKYTPPNFSSWTRDEYGFAHNHVSEGAYERVNEFVDVQRDHADLIRRIGAQSTVLLKNKGALPLSRKEKLVALLGEDAGSNSWGANGCDDRGCDNGTLAMAWGSGTANFPYLVTPEQAIQNEVLQGRGNVFAVTDSWALDKIAAAARQASVSLVFVNSDSGEGYLSVDGNEGDRNNITLWKNGDNVVKTAANNCNNTVVIIHSVGPVLIDEWYDHPNVTGILWAGLPGQESGNSIADVLYGRVNPGAKSPFTWGKTRESYGSPLVKDANNGNGAPQSDFTQGVFIDYRHFDKFNETPIYEFGYGLSYTTFELSDLHVQPLNASRYTPTSGMTEAAKNFGEIGDASEYVYPEGLERIHEFIYPWINSTDLKASSDDSNYGWEDSKYIPEGATDGSAQPRLPASGGAGGNPGLYEDLFRVSVKVKNTGNVAGDEVPQLYVSLGGPNEPKVVLRKFERIHLAPSQEAVWTTTLTRRDLANWDVSAQDWTVTPYPKTIYVGNSSRKLPLQASLPKAQ
[9]; [15]
  conversion of PASC: 1.5±0.3%

B5: P. pinophilum GH61A polypeptide: GH61A polypeptide having cellulolytic enhancing activity (SEQ ID NO: 32), recombinantly prepared according to WO 2011/005867 (protein, listed as Penicillium pinophilum)
chain: MPSTKVAALSAVLALASTVAGHGFVQNIVIDGKSYSGYLVNQFPYESNPPAVIGWATTATDLGFVAPSEYTNADIICHKNATPGALSAPVAAGGTVELQWTTWPDSHHGPVISYLANCNGNCSTVDKTKLDFVKIDQGGLIDDTTPPGTWASDKLIAANNSWTVTIPSTIAPGNYVLRHEIIALHSAGNADGAQNYPQCINLEITGSGTAAPSGTAGEKLYTSTDPGILVNIYQSLSTYVIPGPTLWSGAANGAVATGSATAVATTATASATATPTTLVTSVAPASSTFATAVVTTVAPAVTDVVTVTDVVTVTTVITTTVL
[1]; 1 day
  Percent conversion of AVICEL®: 14.1±0.4%
[1]; 3 days
  Percent conversion of AVICEL®: 28.5±0.5%
[1]; 7 days
  Percent conversion of AVICEL®: 46±2%
